Source: patent EP4471049A1 (Zealand Pharma A/S, priority 2023, dated 2024)
*1 amine or outer side, *2 acyl side, *3 side chain or, on linkers, in order; H or OH if unused. Where a SMILES comes first, the peptide text is derived from it. Bridges are numbered along the chain shown (N, C = ends). [ ]: non-standard residue; d: D form. 2Nal = N[C@@H](Cc1ccc2ccccc2c1)C(=O)O; AEF = NCCOc1ccc(C[C@H](N)C(=O)O)cc1; X1 = O=C(Cc1ccc(CN[*:1])cc1)[*:2]; 3Pal = N[C@@H](Cc1cccnc1)C(=O)O; αMeL = CC(C)C[C@](C)(N)C(=O)O; Dab = NCC[C@H](N)C(=O)O

What was measured:
[1] = Peptide stability in simulated gastric fluid (SGF); assay type: in vitro ADME; details: 37 °C, pH 1.2, porcine pepsin 3.2 g/L; for remaining at 4 h, 10 µM / remaining at 1 h, 10 µM: pig, simulated gastric fluid (SGF) with porcine pepsin
Protocol: (§1) SGF was prepared by dissolving sodium chloride (0.2 g) in 50 mL of water. A volume of 0.7 mL of 10 M HCl was added to adjust the pH of the solution to 1.2 and the volume made up to 100 mL with water. […] SIF was prepared by dissolving monobasic potassium phosphate (0.68 g) in 50 mL of water and adjusting the pH to 6.8 with 1 M NaOH. The volume was subsequently made up to 100 mL with water. 200 mg porcine pancreatin (P1625, Sigma Aldrich) was gently dissolved into 20 mL preheated (37 °C) solution (10 g/L) immediately prior to the incubation.
(§2) The incubation was performed at 37 °C with gentle shaking. […] After the last timepoint, the sampling plate was mixed for 10 min on a shaking table and centrifuged 10 min at 2200 g. 70 µL resulting supernatant was diluted with 150 µL water, mixed and centrifugated before analysis by liquid chromatography high resolution mass spectrometry. […] Percent remaining at each timepoint was calculated relative to timepoint zero based on absolute peak areas.
Compounds with a SGF stability (after 4 h) above 70% are considered highly SGF stable. […] Table 3-4: SGF data

[2] = Peptide stability in simulated intestinal fluid (SIF); assay type: in vitro ADME; details: 37 °C, pH 6.8, porcine pancreatin 10 g/L, 10 µM; for remaining at 4 h, 10 µM / remaining at 1 h, 10 µM: pig, simulated intestinal fluid (SIF) with porcine pancreatin; for remaining at 4 h, 10 µM: read-out: SIF (% remaining 4 h)
Protocol: as §1, §2
Compounds with a SIF stability (after 4 h) above 70% are considered highly SIF stable.

human IL-23R = target: T1, human IL-23R (Homo sapiens, UniProt Q5VWK5); experiment: biochemical; details: for Emax: read-out: % displacement (hIL-23R binding)
T1 sequence (Q5VWK5 22-629): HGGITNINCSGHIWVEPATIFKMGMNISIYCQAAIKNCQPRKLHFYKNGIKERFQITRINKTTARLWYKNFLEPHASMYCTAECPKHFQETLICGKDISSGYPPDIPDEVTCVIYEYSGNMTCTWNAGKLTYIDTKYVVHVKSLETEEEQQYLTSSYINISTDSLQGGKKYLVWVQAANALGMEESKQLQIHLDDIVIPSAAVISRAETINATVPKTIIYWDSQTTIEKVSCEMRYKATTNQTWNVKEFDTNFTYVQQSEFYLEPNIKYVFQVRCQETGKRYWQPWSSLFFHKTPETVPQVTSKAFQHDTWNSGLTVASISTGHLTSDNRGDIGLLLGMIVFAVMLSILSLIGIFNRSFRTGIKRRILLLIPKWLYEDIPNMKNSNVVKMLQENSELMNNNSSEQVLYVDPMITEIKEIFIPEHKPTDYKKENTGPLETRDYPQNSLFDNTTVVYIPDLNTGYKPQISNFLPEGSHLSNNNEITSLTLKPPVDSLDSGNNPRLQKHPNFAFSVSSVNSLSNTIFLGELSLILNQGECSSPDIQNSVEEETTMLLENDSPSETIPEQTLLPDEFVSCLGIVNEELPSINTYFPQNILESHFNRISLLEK
In short: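 BRET displacement of a TAMRA-labelled reference compound from N-terminal Nanoluc-IL-23R fusion protein in membranes from stably transfected HEK293 cells. Incubation 2 h at room temperature, then Nanoluc substrate was added and the TAMRA/Nanoluc ratio read. IC50 and maximal displacement came from 4-parameter logistic fits.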

Compound	remaining at 4 h, 10 µM ([1]; 4 h) [%]	remaining at 4 h, 10 µM ([2]; 4 h) [%]	% displacement (hIL-23R binding) (human IL-23R) [%]	Emax (human IL-23R) [%]	remaining at 1 h, 10 µM ([1]; 1 h) [%]	IC50 (human IL-23R) [nM]	remaining at 1 h, 10 µM ([2]; 1 h) [%]	SGF (% remaining 1 h) ([1]; 1 h, 10 µM) [%]	SGF (% remaining 4 h) ([1]; 4 h, 10 µM) [%]	SIF (% remaining 1 h) ([2]; 1 h) [%]	SIF (% remaining 4 h) ([2]; 4 h) [%]
CC(C)C[C@@H]1NC(=O)[C@H](Cc2c[nH]c3ccccc23)NC(=O)[C@H](Cc2c[nH]c3ccccc23)NC(=O)[C@@H]2CSCC(=O)CSC[C@H](NC(=O)[C@H](CO)NC(=O)[C@@H](NC(=O)[C@@H](N)CC(=O)O)CSCC(=O)CSC[C@@H](C(=O)N[C@@H](CCCNC(=N)N)C(N)=O)NC1=O)C(=O)N[C@@H](Cc1c[nH]c3ccccc13)C(=O)N[C@@H](CCC(N)=O)C(=O)N2 (single isomer, unassigned) [I3 (isomer 3), H-DC(1a)SC(2a)WQC(2a)WWLC(1a)R-[NH2], reference compound]								5	0	0	0
CC(C)C[C@]1(C)NC(=O)[C@H](Cc2ccc3ccccc3c2)NC(=O)[C@H](Cc2ccc(OCCN)cc2)NC(=O)[C@@H]2CCNC(=O)CC[C@H](NC(=O)[C@H](CO)NC(=O)Cc3ccc(cc3)CNC(=O)CC[C@@H](C(=O)N[C@@H](CCN)C(=O)N[C@@H](Cc3cn(C)cn3)C(N)=O)NC1=O)C(=O)N[C@@H](Cc1c[nH]c3ccccc13)C(=O)N[C@@H](CCC(N)=O)C(=O)N2 [Compound 14, [4-Aminomethyl-phenylacetyl](1c)*SE(2c)WQ[Dab](2c)[Y(2-aminoethoxy)][2-Nal][2-Me-Leu]E(1c)[Dab][H(Me)]-[NH2]]	82	75	102								
CNC(=O)[C@H](Cc1cccnc1)NC(=O)[C@H](CCN)NC(=O)[C@@H]1CCC(=O)NCc2ccc(cc2)CC(=O)N[C@@H](CO)C(=O)N[C@H]2CCC(=O)NCC[C@H](NC(=O)[C@H](CCNC(C)=O)NC(=O)[C@H](Cc3c[nH]c4ccccc34)NC2=O)C(=O)N[C@@H](Cc2ccc(OCCN)cc2)C(=O)N[C@@H](Cc2ccc3ccccc3c2)C(=O)N[C@@](C)(CC(C)C)C(=O)N1 [Compound 25, [4-Aminomethyl-phenylacetyl](1c)*SE(2c)W[Dab(Ac)][Dab](2c)[Y(2-aminoethoxy)][2-Nal][2-Me-Leu]E(1c)[Dab][3-(3-Pyridyl)-Ala]-[NHMe]] ([X1]SEW[Dab](Ac)[Dab][AEF][2Nal][αMeL]E[Dab][3Pal]-NHMe; lactam 3-6, N-10)	88	91		93							
CCCC[C@H](NC(=O)[C@@H]1CCC(=O)NCc2ccc(cc2)CC(=O)N[C@@H](CO)C(=O)N[C@H]2CCC(=O)NCC[C@H](NC(=O)[C@H](CCC(N)=O)NC(=O)[C@H](Cc3c[nH]c4ccccc34)NC2=O)C(=O)N[C@@H](Cc2ccc(OCCN)cc2)C(=O)N[C@@H](Cc2ccc3ccccc3c2)C(=O)N[C@@](C)(CC(C)C)C(=O)N1)C(=O)N[C@@H](Cc1cccnc1)C(=O)NC [Compound 32, [4-Aminomethyl-phenylacetyl](1c)*SE(2c)WQ[Dab](2c)[Y(2-aminoethoxy)][2-Nal][2-Me-Leu]E(1c)[Nle][3-(3-Pyridyl)-Ala]-[NHMe]]		65	98		96	0.027					
CNC(=O)[C@H](Cc1cccnc1)NC(=O)[C@H](CCC(N)=O)NC(=O)[C@@H]1CCC(=O)NCc2ccc(cc2)CC(=O)N[C@@H](CO)C(=O)N[C@H]2CCC(=O)NCC[C@H](NC(=O)[C@H](CCC(N)=O)NC(=O)[C@H](Cc3c[nH]c4ccccc34)NC2=O)C(=O)N[C@@H](Cc2ccc(OCCN)cc2)C(=O)N[C@@H](Cc2ccc3ccccc3c2)C(=O)N[C@@](C)(CC(C)C)C(=O)N1 [Compound 33, [4-Aminomethyl-phenylacetyl](1c)*SE(2c)WQ[Dab](2c)[Y(2-aminoethoxy)][2-Nal][2-Me-Leu]E(1c)Q[3-(3-Pyridyl)-Ala]-[NHMe]] ([X1]SEWQ[Dab][AEF][2Nal][αMeL]EQ[3Pal]-NHMe; lactam 3-6, N-10)	93	69		92		0.014					
CNC(=O)[C@H](Cc1cccnc1)NC(=O)[C@H](Cc1c[nH]cn1)NC(=O)[C@@H]1CCC(=O)NCc2ccc(cc2)CC(=O)N[C@@H](CO)C(=O)N[C@H]2CCC(=O)NCC[C@H](NC(=O)[C@H](CCC(N)=O)NC(=O)[C@H](Cc3c[nH]c4ccccc34)NC2=O)C(=O)N[C@@H](Cc2ccc(OCCN)cc2)C(=O)N[C@@H](Cc2ccc3ccccc3c2)C(=O)N[C@@](C)(CC(C)C)C(=O)N1 [Compound 34, [4-Aminomethyl-phenylacetyl](1c)*SE(2c)WQ[Dab](2c)[Y(2-aminoethoxy)][2-Nal][2-Me-Leu]E(1c)H[3-(3-Pyridyl)-Ala]-[NHMe]] ([X1]SEWQ[Dab][AEF][2Nal][αMeL]EH[3Pal]-NHMe; lactam 3-6, N-10)		56	90		96	0.013	87				

Continued, in another order:

remaining at 4 h, 10 µM ([1]; 4 h) [%]	remaining at 4 h, 10 µM ([2]; 4 h) [%]	% displacement (hIL-23R binding) (human IL-23R) [%]	Emax (human IL-23R) [%]	remaining at 1 h, 10 µM ([1]; 1 h) [%]	IC50 (human IL-23R) [nM]	remaining at 1 h, 10 µM ([2]; 1 h) [%]	Compound	SGF (% remaining 1 h) ([1]; 1 h, 10 µM) [%]	SGF (% remaining 4 h) ([1]; 4 h, 10 µM) [%]	SIF (% remaining 1 h) ([2]; 1 h) [%]	SIF (% remaining 4 h) ([2]; 4 h) [%]
94		101				110	CNC(=O)[C@H](Cc1cccnc1)NC(=O)C1(NC(=O)[C@@H]2CCC(=O)NCc3ccc(cc3)CC(=O)N[C@@H](CO)C(=O)N[C@H]3CCC(=O)NCC[C@H](NC(=O)[C@H](CCC(N)=O)NC(=O)[C@H](Cc4c[nH]c5ccccc45)NC3=O)C(=O)N[C@@H](Cc3ccc(OCCN)cc3)C(=O)N[C@@H](Cc3ccc4ccccc4c3)C(=O)N[C@@](C)(CC(C)C)C(=O)N2)CCOCC1 [Compound 35, [4-Aminomethyl-phenylacetyl](1c)*SE(2c)WQ[Dab](2c)[Y(2-aminoethoxy)][2-Nal][2-Me-Leu]E(1c)[THP][3-(3-Pyridyl)-Ala]-[NHMe]]				
	55	94		96	0.014		CNC(=O)[C@H](Cc1cccnc1)NC(=O)[C@H](CCO)NC(=O)[C@@H]1CCC(=O)NCc2ccc(cc2)CC(=O)N[C@@H](CO)C(=O)N[C@H]2CCC(=O)NCC[C@H](NC(=O)[C@H](CCC(N)=O)NC(=O)[C@H](Cc3c[nH]c4ccccc34)NC2=O)C(=O)N[C@@H](Cc2ccc(OCCN)cc2)C(=O)N[C@@H](Cc2ccc3ccccc3c2)C(=O)N[C@@](C)(CC(C)C)C(=O)N1 [Compound 36, [4-Aminomethyl-phenylacetyl](1c)*SE(2c)WQ[Dab](2c)[Y(2-aminoethoxy)][2-Nal][2-Me-Leu]E(1c)[hSer][3-(3-Pyridyl)-Ala]-[NHMe]]				
	69	95		97	0.013	78	CNC(=O)[C@H](Cc1cccnc1)NC(=O)[C@H](COC)NC(=O)[C@@H]1CCC(=O)NCc2ccc(cc2)CC(=O)N[C@@H](CO)C(=O)N[C@H]2CCC(=O)NCC[C@H](NC(=O)[C@H](CCC(N)=O)NC(=O)[C@H](Cc3c[nH]c4ccccc34)NC2=O)C(=O)N[C@@H](Cc2ccc(OCCN)cc2)C(=O)N[C@@H](Cc2ccc3ccccc3c2)C(=O)N[C@@](C)(CC(C)C)C(=O)N1 [Compound 37, [4-Aminomethyl-phenylacetyl](1c)*SE(2c)WQ[Dab](2c)[Y(2-aminoethoxy)][2-Nal][2-Me-Leu]E(1 c)[Ser(OMe)][3-(3-Pyridyl)-Ala]-[NHMe]]				
91	65	102			0.066		CNC(=O)[C@H](Cc1cccnc1)NC(=O)[C@@H](CO)NC(=O)[C@@H]1CCC(=O)NCc2ccc(cc2)CC(=O)N[C@@H](CO)C(=O)N[C@H]2CCC(=O)NCC[C@H](NC(=O)[C@H](CCC(N)=O)NC(=O)[C@H](Cc3c[nH]c4ccccc34)NC2=O)C(=O)N[C@@H](Cc2ccc(OCCN)cc2)C(=O)N[C@@H](Cc2ccc3ccccc3c2)C(=O)N[C@@](C)(CC(C)C)C(=O)N1 [Compound 38, [4-Aminomethyl-phenylacetyl](1c)*SE(2c)WQ[Dab](2c)[Y(2-aminoethoxy)][2-Nal][2-Me-Leu]E(1c)[{d}S][3-(3-Pyridyl)-Ala]-[NHMe]]				
